From patent US9949979B2, “Use of inhibitors of the activity or function of PI3K” (NOVARTIS AG, priority 2011, dated 2018) come the findings set out here.

For test [1], the system named is TLR9. The test is described as follows: TLR9-induced IL-6 in murine splenocytes (CpG1826, ELISA). It counts as cell-based, C57BL/6 mice. As to conditions: Mus musculus, Splenocyte; read-out: TLR9-ligand induced IL-6 in murine splenocytes IC50. The protocol: 2.2 Determination of TLR9-Induced IL-6 in Murine Splenocytes
(§1) Spleens were dissected from C57BL/6 mice immediately following euthanasia. Excess fat was trimmed from the spleens prior to mashing the spleen through a […] cell strainer using a plunger from a 5 ml syringe. A single cell suspension was prepared and the volume was adjusted to 15 ml in a 50 ml Falcon tube using cold PBS. Cells were centrifuged at 1500 rpm for 5 minutes at 4° C. degrees prior to removal of supernatant and re-suspension in 5 ml of red blood cell lysis buffer per spleen and incubation for 5 minutes at room temperature. Ice cold PBS (30 ml) was added to the cells prior to centrifugation at 1500 rpm for 5 minutes at 4° C. The supernatant was removed and the cells were washed twice with 40 ml of murine splenocyte culture media (MSCM). […] Cells were re-suspended in 10-20 ml of MSCM and counted using a Countess cell counter. […]
After overnight culture, cells were transferred to 96-well V-bottomed plates and centrifuged at 2000 rpm for 5 minutes at room temperature. Subsequently 150 μl of each culture supernatant was transferred to 96-well flat-bottomed plates and […] were measured using commercially available mouse IL-6 sandwich ELISA kit (R&D systems). […] IL-6 levels were measured using a SpectraMax 190 Plate Reader (450 nm) and analyzed using SoftMax Pro and GraphPad Prism software.
On the technique in general: In an ELISA, binding on a coated surface is turned into a signal by an enzyme label.

For test [2], the system named is TLR9. Put plainly: TLR9-induced IFN-alpha in murine splenocytes (CpG1585, ELISA). The test is classed as cell-based, 129/Sv mice. To be noted: Mus musculus, Splenocyte; read-out: TLR9-ligand induced IFNα in murine splenocytes IC50. The protocol: 2.3 Determination of TLR9-Induced IFN-Alpha in Murine Splenocytes
as §1, with “Excess” for “Spleens were dissected from C57BL/6 mice immediately following euthanasia. Excess”
After overnight culture, cells were transferred to 96-well V-bottomed plates and centrifuged at 2000 rpm for 5 minutes at room temperature. Subsequently 150 μl of each culture supernatant was transferred to 96-well flat-bottomed plates and […] were measured using commercially available mouse IFN-alpha sandwich ELISA kit (PBL Interferon Source). […] IFN-alpha levels were measured within 5 minutes using a SpectraMax 190 Plate Reader (450 nm) and analyzed using SoftMax Pro and GraphPad Prism software.

In the case of `CCC(=O)N1CC[C@H](Nc2ncnc3c2CN(c2cnc(OC)c(C(F)(F)F)c2)CC3)C1` [Example 67, 1-{(S)-3-[6-(6-Methoxy-5-trifluoromethyl-pyridin-3-yl)-5,6,7,8-tetrahydro-pyrido[4,3-d]pyrimidin-4-ylamino]-pyrrolidin-1-yl}-propan-1-one], the IC50 (as a rule, the concentration that gives 50% inhibition) is 96 nM in test [1] and over 2220 nM in test [2].
